Experimental data: patent publication US8802597B2, “Herbicidal pyrimidines” (E I du Pont de Nemours and Company, priority 2003, dated 2014)

Columns and labels:
Test in all cases: Test E flooded paddy water application
Type in all cases: in vivo
[1] = tested on: barnyardgrass (Echinochloa crus-galli); conditions: Flood, 21 days, scale 0 to 100 (0 no effect, 100 complete control); for Plant response rating, Barnyardgrass: 16 g ai/ha
How it was run: (§1)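 Greenhouse pots of Tama silt loam with weeds and rice at 2.0–2.5-leaf stage, flooded to 3 cm; compounds applied directly into paddy water, depth maintained. Visual rating versus untreated controls after 21 days, 0 (no effect) to 100 (complete control); 29.5/26.7 °C, 16-h photoperiod.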

[2] = tested on: bearded (brdd.) sprangletop (Leptochloa fusca ssp. fascicularis); conditions: Flood, 21 days, scale 0 to 100 (0 no effect, 100 complete control)
How it was run: as §1

[3] = tested on: ducksalad (Heteranthera limosa); conditions: Flood, 21 days, scale 0 to 100 (0 no effect, 100 complete control); for Plant response rating, Ducksalad: 16 g ai/ha
How it was run: as §1

[4] = tested on: early watergrass (Echinochloa oryzoides); conditions: Flood, 21 days, scale 0 to 100 (0 no effect, 100 complete control)
How it was run: as §1

[5] = tested on: junglerice (Echinochloa colona); conditions: Flood, 21 days, scale 0 to 100 (0 no effect, 100 complete control)
How it was run: as §1

[6] = tested on: late watergrass (Echinochloa oryzicola); conditions: Flood, 21 days, scale 0 to 100 (0 no effect, 100 complete control)
How it was run: as §1

[7] = tested on: purple redstem (Ammannia coccinea); conditions: Flood, 21 days, scale 0 to 100 (0 no effect, 100 complete control)
How it was run: as §1

[8] = tested on: rice flatsedge (Cyperus iria); conditions: Flood, 21 days, scale 0 to 100 (0 no effect, 100 complete control)
How it was run: as §1

[9] = tested on: smallflower umbrella sedge (Cyperus difformis); conditions: Flood, 21 days, scale 0 to 100 (0 no effect, 100 complete control)
How it was run: as §1

[10] = tested on: transplanted rice seedlings (Oryza sativa cv. ‘Japonica-M202’); conditions: Flood, 21 days, scale 0 to 100 (0 no effect, 100 complete control)
How it was run: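 Response scored visually on a 0–100 scale (100 = complete control) at 21 days against untreated pots. Treatment was into paddy water 3 cm deep over silt loam, with plants at the 2.0–2.5-leaf stage, grown under 16-h light at 29.5/26.7 °C day/night.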

[11] = tested on: water seeded rice seedlings (Oryza sativa cv. ‘Japonica-M202’); conditions: Flood, 21 days, scale 0 to 100 (0 no effect, 100 complete control)
How it was run: as §1

Nc1nc(-c2ccc(Cl)cc2)nc(C(=O)[O-])c1Cl.[Na+] [Compound 117]
0: Barnyardgrass plant response rating ([1]; 32 g ai/ha) | Barnyardgrass plant response rating ([1]; 64 g ai/ha) | Barnyardgrass plant response rating ([1]; 125 g ai/ha) | Barnyardgrass plant response rating ([1]; 250 g ai/ha) | Plant response rating, Barnyardgrass [1] | Sprangletop, Brdd. plant response rating ([2]; 32 g ai/ha) | Sprangletop, Brdd. plant response rating ([2]; 64 g ai/ha) | Sprangletop, Brdd. plant response rating ([2]; 125 g ai/ha) | Sprangletop, Brdd. plant response rating ([2]; 250 g ai/ha) | Plant response rating, Sprangletop, Brdd. ([2]; 16 g ai/ha) | Watergrass, Early plant response rating ([4]; 32 g ai/ha) | Watergrass, Early plant response rating ([4]; 64 g ai/ha) | Watergrass, Early plant response rating ([4]; 125 g ai/ha) | Watergrass, Early plant response rating ([4]; 250 g ai/ha) | Plant response rating, Watergrass, Early ([4]; 16 g ai/ha) | Junglerice plant response rating ([5]; 32 g ai/ha) | Junglerice plant response rating ([5]; 64 g ai/ha) | Junglerice plant response rating ([5]; 125 g ai/ha) | Junglerice plant response rating ([5]; 250 g ai/ha) | Plant response rating, Junglerice ([5]; 16 g ai/ha) | Watergrass, Late plant response rating ([6]; 32 g ai/ha) | Watergrass, Late plant response rating ([6]; 64 g ai/ha) | Watergrass, Late plant response rating ([6]; 125 g ai/ha) | Watergrass, Late plant response rating ([6]; 250 g ai/ha) | Plant response rating, Watergrass, Late ([6]; 16 g ai/ha) | Redstem plant response rating ([7]; 32 g ai/ha) | Redstem plant response rating ([7]; 64 g ai/ha) | Redstem plant response rating ([7]; 125 g ai/ha) | Plant response rating, Redstem ([7]; 16 g ai/ha) | Rice, Transplanted plant response rating ([10]; 32 g ai/ha) | Rice, Transplanted plant response rating ([10]; 64 g ai/ha) | Rice, Transplanted plant response rating ([10]; 125 g ai/ha) | Plant response rating, Rice, Transplanted ([10]; 16 g ai/ha) | Rice, Water Seeded plant response rating ([11]; 32 g ai/ha) | Rice, Water Seeded plant response rating ([11]; 64 g ai/ha) | Rice, Water Seeded plant response rating ([11]; 125 g ai/ha) | Rice, Water Seeded plant response rating ([11]; 250 g ai/ha) | Plant response rating, Rice, Water Seeded ([11]; 16 g ai/ha)
20: Rice, Transplanted plant response rating ([10]; 250 g ai/ha)
30: Redstem plant response rating ([7]; 250 g ai/ha)
60: Plant response rating, Sedge, Umbrella ([9]; 16 g ai/ha)
85: Sedge, Umbrella plant response rating ([9]; 32 g ai/ha)
100: Ducksalad plant response rating ([3]; 32 g ai/ha) | Ducksalad plant response rating ([3]; 64 g ai/ha) | Ducksalad plant response rating ([3]; 125 g ai/ha) | Ducksalad plant response rating ([3]; 250 g ai/ha) | Plant response rating, Ducksalad [3] | Flatsedge, Rice plant response rating ([8]; 32 g ai/ha) | Flatsedge, Rice plant response rating ([8]; 64 g ai/ha) | Flatsedge, Rice plant response rating ([8]; 125 g ai/ha) | Flatsedge, Rice plant response rating ([8]; 250 g ai/ha) | Plant response rating, Flatsedge, Rice ([8]; 16 g ai/ha) | Sedge, Umbrella plant response rating ([9]; 64 g ai/ha) | Sedge, Umbrella plant response rating ([9]; 125 g ai/ha) | Sedge, Umbrella plant response rating ([9]; 250 g ai/ha)

COC(=O)c1nc(-c2ccc(Br)cc2)nc(N)c1Br [Compound 129]
95: Redstem plant response rating ([7]; 250 g ai/ha)
75: Redstem plant response rating ([7]; 64 g ai/ha)
80: Redstem plant response rating ([7]; 125 g ai/ha) | Sedge, Umbrella plant response rating ([9]; 64 g ai/ha)
30: Plant response rating, Redstem ([7]; 16 g ai/ha)
70: Sprangletop, Brdd. plant response rating ([2]; 250 g ai/ha)
60: Plant response rating, Redstem ([7]; 32 g ai/ha) | Plant response rating, Sedge, Umbrella ([9]; 32 g ai/ha)
100: Ducksalad plant response rating ([3]; 32 g ai/ha) | Ducksalad plant response rating ([3]; 64 g ai/ha) | Ducksalad plant response rating ([3]; 125 g ai/ha) | Ducksalad plant response rating ([3]; 250 g ai/ha) | Plant response rating, Ducksalad [3] | Flatsedge, Rice plant response rating ([8]; 64 g ai/ha) | Flatsedge, Rice plant response rating ([8]; 125 g ai/ha) | Flatsedge, Rice plant response rating ([8]; 250 g ai/ha) | Plant response rating, Flatsedge, Rice ([8]; 16 g ai/ha) | Plant response rating, Flatsedge, Rice ([8]; 32 g ai/ha) | Sedge, Umbrella plant response rating ([9]; 125 g ai/ha) | Sedge, Umbrella plant response rating ([9]; 250 g ai/ha)
0: Barnyardgrass plant response rating ([1]; 32 g ai/ha) | Barnyardgrass plant response rating ([1]; 64 g ai/ha) | Barnyardgrass plant response rating ([1]; 125 g ai/ha) | Barnyardgrass plant response rating ([1]; 250 g ai/ha) | Plant response rating, Barnyardgrass [1] | Sprangletop, Brdd. plant response rating ([2]; 64 g ai/ha) | Sprangletop, Brdd. plant response rating ([2]; 125 g ai/ha) | Plant response rating, Sprangletop, Brdd. ([2]; 16 g ai/ha) | Plant response rating, Sprangletop, Brdd. ([2]; 32 g ai/ha) | Watergrass, Early plant response rating ([4]; 64 g ai/ha) | Watergrass, Early plant response rating ([4]; 125 g ai/ha) | Watergrass, Early plant response rating ([4]; 250 g ai/ha) | Plant response rating, Watergrass, Early ([4]; 16 g ai/ha) | Plant response rating, Watergrass, Early ([4]; 32 g ai/ha) | Junglerice plant response rating ([5]; 64 g ai/ha) | Junglerice plant response rating ([5]; 125 g ai/ha) | Junglerice plant response rating ([5]; 250 g ai/ha) | Plant response rating, Junglerice ([5]; 16 g ai/ha) | Plant response rating, Junglerice ([5]; 32 g ai/ha) | Watergrass, Late plant response rating ([6]; 64 g ai/ha) | Watergrass, Late plant response rating ([6]; 125 g ai/ha) | Watergrass, Late plant response rating ([6]; 250 g ai/ha) | Plant response rating, Watergrass, Late ([6]; 16 g ai/ha) | Plant response rating, Watergrass, Late ([6]; 32 g ai/ha) | Plant response rating, Sedge, Umbrella ([9]; 16 g ai/ha) | Rice, Transplanted plant response rating ([10]; 64 g ai/ha) | Rice, Transplanted plant response rating ([10]; 125 g ai/ha) | Rice, Transplanted plant response rating ([10]; 250 g ai/ha) | Plant response rating, Rice, Transplanted ([10]; 16 g ai/ha) | Plant response rating, Rice, Transplanted ([10]; 32 g ai/ha) | Rice, Water Seeded plant response rating ([11]; 64 g ai/ha) | Rice, Water Seeded plant response rating ([11]; 125 g ai/ha) | Rice, Water Seeded plant response rating ([11]; 250 g ai/ha) | Plant response rating, Rice, Water Seeded ([11]; 16 g ai/ha) | Plant response rating, Rice, Water Seeded ([11]; 32 g ai/ha)

CCOC(=O)c1nc(-c2ccc3c(c2)OCO3)nc(N)c1Cl [Compound 74]
100: Ducksalad plant response rating ([3]; 32 g ai/ha) | Ducksalad plant response rating ([3]; 64 g ai/ha) | Ducksalad plant response rating ([3]; 125 g ai/ha) | Ducksalad plant response rating ([3]; 250 g ai/ha) | Plant response rating, Ducksalad [3] | Sedge, Umbrella plant response rating ([9]; 250 g ai/ha)
65: Junglerice plant response rating ([5]; 250 g ai/ha)
25: Redstem plant response rating ([7]; 250 g ai/ha)
0: Barnyardgrass plant response rating ([1]; 32 g ai/ha) | Barnyardgrass plant response rating ([1]; 64 g ai/ha) | Barnyardgrass plant response rating ([1]; 250 g ai/ha) | Plant response rating, Barnyardgrass [1] | Sprangletop, Brdd. plant response rating ([2]; 32 g ai/ha) | Sprangletop, Brdd. plant response rating ([2]; 64 g ai/ha) | Sprangletop, Brdd. plant response rating ([2]; 125 g ai/ha) | Sprangletop, Brdd. plant response rating ([2]; 250 g ai/ha) | Plant response rating, Sprangletop, Brdd. ([2]; 16 g ai/ha) | Watergrass, Early plant response rating ([4]; 32 g ai/ha) | Watergrass, Early plant response rating ([4]; 64 g ai/ha) | Watergrass, Early plant response rating ([4]; 125 g ai/ha) | Watergrass, Early plant response rating ([4]; 250 g ai/ha) | Plant response rating, Watergrass, Early ([4]; 16 g ai/ha) | Junglerice plant response rating ([5]; 32 g ai/ha) | Junglerice plant response rating ([5]; 64 g ai/ha) | Junglerice plant response rating ([5]; 125 g ai/ha) | Plant response rating, Junglerice ([5]; 16 g ai/ha) | Watergrass, Late plant response rating ([6]; 32 g ai/ha) | Watergrass, Late plant response rating ([6]; 64 g ai/ha) | Watergrass, Late plant response rating ([6]; 125 g ai/ha) | Watergrass, Late plant response rating ([6]; 250 g ai/ha) | Plant response rating, Watergrass, Late ([6]; 16 g ai/ha) | Redstem plant response rating ([7]; 32 g ai/ha) | Redstem plant response rating ([7]; 64 g ai/ha) | Plant response rating, Redstem ([7]; 16 g ai/ha) | Flatsedge, Rice plant response rating ([8]; 32 g ai/ha) | Flatsedge, Rice plant response rating ([8]; 64 g ai/ha) | Plant response rating, Flatsedge, Rice ([8]; 16 g ai/ha) | Sedge, Umbrella plant response rating ([9]; 32 g ai/ha) | Plant response rating, Sedge, Umbrella ([9]; 16 g ai/ha) | Rice, Transplanted plant response rating ([10]; 32 g ai/ha) | Rice, Transplanted plant response rating ([10]; 64 g ai/ha) | Rice, Transplanted plant response rating ([10]; 125 g ai/ha) | Rice, Transplanted plant response rating ([10]; 250 g ai/ha) | Plant response rating, Rice, Transplanted ([10]; 16 g ai/ha) | Rice, Water Seeded plant response rating ([11]; 32 g ai/ha) | Rice, Water Seeded plant response rating ([11]; 64 g ai/ha) | Rice, Water Seeded plant response rating ([11]; 125 g ai/ha) | Rice, Water Seeded plant response rating ([11]; 250 g ai/ha) | Plant response rating, Rice, Water Seeded ([11]; 16 g ai/ha)
95: Flatsedge, Rice plant response rating ([8]; 250 g ai/ha) | Sedge, Umbrella plant response rating ([9]; 125 g ai/ha)
20: Redstem plant response rating ([7]; 125 g ai/ha)
80: Sedge, Umbrella plant response rating ([9]; 64 g ai/ha)
90: Flatsedge, Rice plant response rating ([8]; 125 g ai/ha)
